Experimental data published in the NIST ThermoML archive (doi:10.1016/j.jct.2010.11.007).

Assay: xn = mol fraction of the nth substance listed
Conditions: Liquid; for speed of sound: Sing-around technique in a fixed-path interferometer; for mass density: Vibrating tube method

C=CC(C)(O)CCC=C(C)C (stereo unspecified) [3,7-dimethyl-1,6-octadien-3-ol] + CCCO
Conditions	mass density, 283.15 K [kg/m3]	mass density, 298.15 K [kg/m3]	mass density, 313.15 K [kg/m3]	mass density, 328.15 K [kg/m3]	speed of sound, 283.15 K [m/s]	speed of sound, 298.15 K [m/s]	speed of sound, 313.15 K [m/s]	speed of sound, 328.15 K [m/s]
101 kPa, x1 = 0.0533	–	–	–	–	–	–	1171.9	1121
101 kPa, x1 = 0.0551	819.82	807.92	795.75	783.12	1274.4	1222.4	–	–
101 kPa, x1 = 0.1051	826.23	814.32	802.06	789.69	1288.6	1236	1184.2	1132.6
101 kPa, x1 = 0.2014	836.56	824.59	812.16	799.39	1308.8	1255.7	1203.6	1151
101 kPa, x1 = 0.3032	–	832.73	–	807.41	–	–	–	–
101 kPa, x1 = 0.3049	845.01	–	820.4	–	1326.2	1272.1	1218	1165.3
101 kPa, x1 = 0.3869	850.24	838.05	825.47	–	–	1281.3	1227.7	–
101 kPa, x1 = 0.3946	–	–	–	–	1336.7	–	–	–
101 kPa, x1 = 0.3947	–	–	–	812.99	–	–	–	1174.8
101 kPa, x1 = 0.4923	855.58	843.28	830.75	–	–	–	–	–
101 kPa, x1 = 0.4925	–	–	–	817.72	–	–	–	–
101 kPa, x1 = 0.4951	–	–	–	–	1345.4	1290.3	1236.5	1183.1
101 kPa, x1 = 0.5905	859.44	–	834.56	–	–	–	–	–
101 kPa, x1 = 0.5917	–	847.16	–	821.54	1350.8	1295.7	1242.2	1189.7
101 kPa, x1 = 0.6818	–	–	–	824.42	–	–	–	–
101 kPa, x1 = 0.6847	–	–	–	–	1355.2	1301	1247.2	1193.6
101 kPa, x1 = 0.6895	862.58	–	837.72	–	–	–	–	–
101 kPa, x1 = 0.69	–	850.31	–	–	–	–	–	–
101 kPa, x1 = 0.7653	–	852.26	839.66	826.67	–	–	1250.9	1197
101 kPa, x1 = 0.7685	864.67	–	–	–	1359	1304.8	–	–
101 kPa, x1 = 0.8735	866.97	854.67	842.05	829.08	1364.2	1309.4	1255.2	1201.2
101 kPa, x1 = 0.9296	868.12	855.79	843.14	830.17	1366.3	1311.8	1258	1204.4
101 kPa, x1 = 1	869.39	857	844.29	831.31	1370.6	1315.1	1260.8	1207.6
20000 kPa, x1 = 0.0582	833.8	822.8	811.8	800.4	–	–	–	–
20000 kPa, x1 = 0.1037	839.4	828.4	817.4	806	–	–	–	–
20000 kPa, x1 = 0.1803	847.1	836.2	825.1	813.6	–	–	–	–
20000 kPa, x1 = 0.3087	857.5	846.3	834.9	823.4	–	–	–	–
20000 kPa, x1 = 0.4104	863.5	852.3	840.7	829.1	–	–	–	–
20000 kPa, x1 = 0.4994	867.6	856.4	844.9	833.2	–	–	–	–
20000 kPa, x1 = 0.5939	871.3	860	848.4	836.7	–	–	–	–
20000 kPa, x1 = 0.7117	875.1	863.7	852.2	840.5	–	–	–	–
20000 kPa, x1 = 0.7777	876.8	865.5	853.9	842.2	–	–	–	–
20000 kPa, x1 = 0.8566	878.5	867	855.5	843.8	–	–	–	–
20000 kPa, x1 = 0.9405	880.2	868.8	857.3	845.6	–	–	–	–
20000 kPa, x1 = 1	881.2	869.7	858.1	846.4	–	–	–	–
25000 kPa, x1 = 0.0582	837	826.1	815.4	804.3	–	–	–	–
25000 kPa, x1 = 0.1037	842.5	831.7	820.9	809.7	–	–	–	–
25000 kPa, x1 = 0.1803	850.1	839.3	828.4	817.1	–	–	–	–
25000 kPa, x1 = 0.3087	860.5	849.4	838.3	826.9	–	–	–	–
25000 kPa, x1 = 0.4104	866.4	855.4	844.1	832.7	–	–	–	–
25000 kPa, x1 = 0.4994	870.5	859.5	848.1	836.7	–	–	–	–
25000 kPa, x1 = 0.5939	874.2	863	851.7	840.2	–	–	–	–
25000 kPa, x1 = 0.7117	877.9	866.7	855.4	843.9	–	–	–	–
25000 kPa, x1 = 0.7777	879.6	868.5	857.1	845.6	–	–	–	–
25000 kPa, x1 = 0.8566	881.3	870	858.7	847.2	–	–	–	–
25000 kPa, x1 = 0.9405	883	871.8	860.4	848.9	–	–	–	–
25000 kPa, x1 = 1	884	872.7	861.3	849.8	–	–	–	–
30000 kPa, x1 = 0.0582	839.8	829.3	818.7	807.8	–	–	–	–
30000 kPa, x1 = 0.1037	845.3	834.9	824.3	813.3	–	–	–	–
30000 kPa, x1 = 0.1803	852.9	842.5	831.7	820.7	–	–	–	–
30000 kPa, x1 = 0.3087	863.2	852.5	841.5	830.4	–	–	–	–
30000 kPa, x1 = 0.4104	869.1	858.4	847.2	836	–	–	–	–
30000 kPa, x1 = 0.4994	873.2	862.4	851.2	840	–	–	–	–
30000 kPa, x1 = 0.5939	876.8	866	854.8	843.6	–	–	–	–
30000 kPa, x1 = 0.7117	880.6	869.7	858.5	847.2	–	–	–	–
30000 kPa, x1 = 0.7777	882.2	871.4	860.2	848.9	–	–	–	–
30000 kPa, x1 = 0.8566	883.9	872.9	861.7	850.4	–	–	–	–
30000 kPa, x1 = 0.9405	885.6	874.7	863.4	852.1	–	–	–	–
30000 kPa, x1 = 1	886.6	875.6	864.3	853	–	–	–	–
35000 kPa, x1 = 0.0582	842.8	832.4	822.1	811.3	–	–	–	–
35000 kPa, x1 = 0.1037	848.3	837.9	827.5	816.7	–	–	–	–
35000 kPa, x1 = 0.1803	855.7	845.4	834.8	823.9	–	–	–	–
35000 kPa, x1 = 0.3087	866	855.4	844.6	833.6	–	–	–	–
35000 kPa, x1 = 0.4104	871.9	861.2	850.4	839.3	–	–	–	–
35000 kPa, x1 = 0.4994	875.9	865.2	854.3	843.2	–	–	–	–
35000 kPa, x1 = 0.5939	879.4	868.7	857.8	846.7	–	–	–	–
35000 kPa, x1 = 0.7117	883.2	872.4	861.5	850.4	–	–	–	–
35000 kPa, x1 = 0.7777	884.9	874.1	863.2	852.1	–	–	–	–
35000 kPa, x1 = 0.8566	886.5	875.6	864.7	853.6	–	–	–	–
35000 kPa, x1 = 0.9405	888.2	877.3	866.4	855.2	–	–	–	–
35000 kPa, x1 = 1	889.2	878.3	867.3	856.2	–	–	–	–
40000 kPa, x1 = 0.0582	845.5	835.4	825.1	814.7	–	–	–	–
40000 kPa, x1 = 0.1037	851.1	840.9	830.7	820.1	–	–	–	–
40000 kPa, x1 = 0.1803	858.4	848.3	837.9	827.2	–	–	–	–
40000 kPa, x1 = 0.3087	868.6	858.3	847.7	836.9	–	–	–	–
40000 kPa, x1 = 0.4104	874.6	864	853.3	842.4	–	–	–	–
40000 kPa, x1 = 0.4994	878.5	867.9	857.3	846.4	–	–	–	–
40000 kPa, x1 = 0.5939	882.1	871.5	860.7	849.8	–	–	–	–
40000 kPa, x1 = 0.7117	885.9	875.1	864.4	853.5	–	–	–	–
40000 kPa, x1 = 0.7777	887.5	876.8	866.1	855.1	–	–	–	–
40000 kPa, x1 = 0.8566	889.1	878.3	867.6	856.6	–	–	–	–
40000 kPa, x1 = 0.9405	890.8	880	869.2	858.2	–	–	–	–
40000 kPa, x1 = 1	891.8	881	870.2	859.2	–	–	–	–
